In patent US20190359645A1, “2'3'-CYCLIC DINUCLEOTIDES COMPRISING CARBOCYCLIC NUCLEOTIDE” (Institute of Organic Chemistry and Biochemistry ASCR, V.V.I., priority 2018, published 2019):

molecular target: WT STING (Homo sapiens, UniProt Q86WV6, H232R); assay: Digitonin assay using 293T wtSTING-FL reporter cells; format: cell-based; set-up: host or cells: 293T (ATCC CRL-3216), stably transfected; also carries the 4xISRE firefly luciferase reporter; conditions: 293T wtSTING-FL cells, digitonin buffer 30 min, then 5 h, ISRE firefly luciferase reporter; read-out: Digitonin assay EC50 WT STING
Description: Two complementary oligonucleotides of the sequence […] […] […] […] (SEQ ID NO: 1) and […] […] (SEQ ID NO:2) containing four interferon-sensitive response elements (ISRE) were synthesized by Sigma Aldrich (Czech Republic, Prague). The oligonucleotides were mixed in equal molar amounts, hybridized, and cleaved by restriction endonucleases HindIII (cat. #. R^0104S, NEB, Ipswich, USA) and BglII (cat. # R^0144S, NEB, Ipswich, USA). Ultimately, they were ligated into plasmid pGL4.27 (cat. # E6651, Promega, Madison, USA) linearized with the same enzymes. As a result, the sequence with four ISRE sites was placed upstream of the minimum promoter of firefly luciferase reporter gene.
293T cells (cat. # CRL-3216, ATCC, Manassas, USA) were seeded a day before transfection at density 125,000 cells per cm^2 onto poly-D-lysine (cat. # P6407, Sigma Aldrich, Czech Republic) coated six well plates in antibiotic free DMEM with high glucose (cat. # D5796, Sigma Aldrich, Czech Republic) supplemented with 10% heat inactivated FBS (cat. # S1520, Biowest, Riverside, USA). On the day of transfection, 2.5 μg of the plasmid pUNO1-hSTING-WT (cat. # punol-hstingwt, InvivoGen, San Diego, USA,) encoding human wild type STING (WT STING) was diluted in 125 μL OptiMEM medium (cat. #31985062, ThermoFisher, Waltham, USA) and mixed with 125 μL of the same medium containing 12.5 μL of Lipofectamine 2000 (cat. #11668019, ThermoFisher, Waltham, USA). After 5 minutes incubation at room temperature (RT), 250 μL of the mixture was added dropwise to the cells in one well. Cells were incubated 36 hours at 37° C. with 5% CO2, and then detached with 0.05% Trypsin and 0.22 g/L EDTA (both cat. # L0941, Biowest, Riverside, USA).
Transfected cells were seeded onto poly-D-lysine coated six well plates at density 50,000 cells per 1 cm^2 in DMEM medium with high glucose containing 10% heat inactivated FBS, […] blasticidin (cat. # ant-bl-05, InvivoGen, San Diego, USA), 0.06 mg/ml Penicillin G and 0.1 mg/ml Streptomycin Sulfate (both cat. #. L0018, Biowest, Riverside, USA). The medium was replenished every 3-4 days until visible colonies of cells resistant to blasticidin were formed.
Blasticidin resistant cells stably expressing WT STING were further transfected with […] plasmid following the same procedure as described above. The transfected cells were selected for the resistance to 300 μg/mL hygromycin (cat. #. 10687010, ThermoFisher, Waltham, USA) in DMEM with high glucose containing 10% heat inactivated FBS, […] blasticidin, 0.06 mg/ml Penicillin G and 0.1 mg/ml Streptomycin Sulfate. Homogeneous culture of stably double transfected cells was prepared by limiting dilution of cells in 96 well plates and wells with cells were selected that originated from a single cell. These cells were expanded, and expression of WT STING was confirmed by western blot using monoclonal mouse anti STING antibodies (cat. #. MAB7169, 1:1000 dilution; […] cat. #. HAF007, 1:2000 dilution, both from R&D Systems, Minneapolis, USA), and by induction of firefly luciferase expression in the presence of 50 μM STING agonist 2′3′ cGAMP (cat. # tlrl-nacga23, InvivoGen, San Diego, USA). Genomic DNA from the transfected cells was amplified with primers pUNO1_Seq_F ([…]) (SEQ ID NO:3) and pUNO1_Seq_R ([…]) (SEQ ID NO:4) that were complementary to pUNO1 plasmid and the presence of WT STING gene in the transfected cells was confirmed by DNA sequencing.
293T wtSTING-FL cells were seeded at density of 250,000 cells per cm^2 onto 96 well poly-D-lysine coated plates in 100 μl DMEM with high glucose supplemented with 10% heat inactivated FBS. […]

Chain of WT STING (Q86WV6 whole entry H232R): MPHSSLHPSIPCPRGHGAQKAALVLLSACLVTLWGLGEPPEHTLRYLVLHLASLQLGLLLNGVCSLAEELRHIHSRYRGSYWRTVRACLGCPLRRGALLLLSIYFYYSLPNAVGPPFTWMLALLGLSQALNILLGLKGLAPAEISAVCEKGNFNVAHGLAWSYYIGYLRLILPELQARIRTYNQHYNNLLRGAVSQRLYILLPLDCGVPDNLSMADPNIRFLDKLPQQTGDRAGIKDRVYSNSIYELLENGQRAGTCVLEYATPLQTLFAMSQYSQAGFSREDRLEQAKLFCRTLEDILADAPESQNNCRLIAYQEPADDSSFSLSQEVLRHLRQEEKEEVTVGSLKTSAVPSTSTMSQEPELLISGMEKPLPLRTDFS

Compound	EC50 [nM]
Nc1nc(N)c2ncn([C@@H]3O[C@@H]4COP(=O)(O)OC5C(O)[C@@H](COP(=O)(O)OC4C3F)C[C@H]5n3cnc4c(=O)[nH]c(N)nc43)c2n1 (stereo partly drawn) [Compound 117, (6R,8R,15R,17R)-17-(2-amino-6-oxo-6,9-dihydro-1H-purin-9-yl)-8-(2,6-diamino-9H-purin-9-yl)-9-fluoro-3,12,18-trihydroxy-2,4,7,11,13-pentaoxa-3λ^5,12λ^5-diphosphatricyclo[13.2.1.0^6,10]octadecane-3,12-dione]	50
Nc1nc(N)c2ncn([C@@H]3O[C@@H]4COP(=O)(O)OC5C(O)[C@@H](COP(=O)(O)OC4C3O)C[C@H]5n3cnc4c(=O)[nH]c(N)nc43)c2n1 (stereo partly drawn) [Compound 105, (6R,8R,15R,17R)-17-(2-amino-6-oxo-6,9-dihydro-1H-purin-9-yl)-8-(2,6-diamino-9H-purin-9-yl)-3,9,12,18-tetrahydroxy-2,4,7,11,13-pentaoxa-3λ^5,12λ^5-diphosphatricyclo[13.2.1.0^6,10]octadecane-3,12-dione]	500
Nc1nc2c(ncn2[C@@H]2C[C@@H]3COP(=O)(O)OC4C(O)[C@H](n5cnc6c(N)ncnc65)O[C@@H]4COP(=O)(O)OC2C3O)c(=O)[nH]1 (stereo partly drawn) [Compound 102, (6R,8R,15R,17R)-17-(2-amino-6-oxo-6,9-dihydro-1H-purin-9-yl)-8-(6-amino-9H-purin-9-yl)-3,9,12,18-tetrahydroxy-2,4,7,11,13-pentaoxa-3λ^5,12λ^5-diphosphatricyclo[13.2.1.0^6,10]octadecane-3,12-dione]	100
Nc1nc2c(ncn2[C@@H]2C[C@@H]3COP(=O)(O)OC4C(O)[C@H](n5cnc6c(Cl)ncnc65)O[C@@H]4COP(=O)(O)OC2C3O)c(=O)[nH]1 (stereo partly drawn) [Compound 115, (6R,8R,15R,17R)-17-(2-amino-6-oxo-6,9-dihydro-1H-purin-9-yl)-8-(6-chloro-9H-purin-9-yl)-3,9,12,18-tetrahydroxy-2,4,7,11,13-pentaoxa-3λ^5,12λ^5-diphosphatricyclo[13.2.1.0^6,10]octadecane-3,12-dione]	70
Nc1nc2c(ncn2[C@@H]2C[C@@H]3COP(=O)(O)OC4C(O)[C@H](n5cnc6c(=O)[nH]cnc65)O[C@@H]4COP(=O)(O)OC2C3O)c(=O)[nH]1 (stereo partly drawn) [Compound 104, (6R,8R,15R,17R)-17-(2-amino-6-oxo-6,9-dihydro-1H-purin-9-yl)-3,9,12,18-tetrahydroxy-8-(6-oxo-6,9-dihydro-1H-purin-9-yl)-2,4,7,11,13-pentaoxa-3λ^5,12λ^5-diphosphatricyclo[13.2.1.0^6,10]octadecane-3,12-dione]	100
C#Cc1cn([C@@H]2O[C@@H]3COP(=O)(O)OC4C(O)[C@@H](COP(=O)(O)OC3C2O)C[C@H]4n2cnc3c(=O)[nH]c(N)nc32)c2ncnc(N)c12 (stereo partly drawn) [Compound 114, (6R,8R,15R,17R)-8-{4-amino-5-ethynyl-7H-pyrrolo 2,3-dlpyrimidin-7-yl}-17-(2-amino-6-oxo-6,9-dihydro-1H-purin-9-yl)-3,9,12,18-tetrahydroxy-2,4,7,11,13-pentaoxa-3λ^5,12λ^5-diphosphatricyclo[13.2.1.0^6,10]octadecane-3,12-dione]	400

More lines, now with the values ahead:

EC50 [nM]	Compound
120	Cc1cn([C@@H]2O[C@@H]3COP(=O)(O)OC4C(O)[C@@H](COP(=O)(O)OC3C2O)C[C@H]4n2cnc3c(=O)[nH]c(N)nc32)c2ncnc(N)c12 (stereo partly drawn) [Compound 113, (6R,8R,15R,17R)-8-{4-amino-5-methyl-7H-pyrrolo[2,3-d]pyrimidin-7-yl}-17-(2-amino-6-oxo-6,9-dihydro-1H-purin-9-yl)-3,9,12,18-tetrahydroxy-2,4,7,11,13-pentaoxa-3λ^5,12λ^5-diphosphatricyclo[13.2.1.0^6,10]octadecane-3,12-dione]
15100	CSc1nc(N)nc2c1ncn2[C@@H]1O[C@@H]2COP(=O)(O)OC3C(O)[C@@H](COP(=O)(O)OC2C1O)C[C@H]3n1cnc2c(=O)[nH]c(N)nc21 (stereo partly drawn) [Compound 112, (6R,8R,15R,17R)-8-[2-amino-6-(methylsulfanyl)-9H-purin-9-yl]-17-(2-amino-6-oxo-6,9-dihydro-1H-purin-9-yl)-3,9,12,18-tetrahydroxy-2,4,7,11,13-pentaoxa-3λ^5,12λ^5-diphosphatricyclo[13.2.1.0^6,10]octadecane-3,12-dione]
400	Nc1ncnc2c1ncn2[C@@H]1O[C@@H]2COP(=O)(S)O[C@@H]3[C@H](F)[C@@H](COP(=O)(S)O[C@H]2[C@H]1F)C[C@H]3n1cnc2c(=O)[nH]cnc21 (single isomer, unassigned) [Compound 128b]
50	Nc1ncnc2c1ncn2[C@@H]1O[C@@H]2COP(=O)(O)O[C@@H]3[C@@H](F)[C@@H](COP(=O)(O)O[C@H]2[C@H]1O)C[C@H]3n1cnc2c(=O)[nH]cnc21 [Compound 126, (1S,6R,8R,9R,10S,15R,17R,18S)-8-(6-amino-9H-purin-9-yl)-18-fluoro-3,9,12-trihydroxy-17-(6-oxo-6,9-dihydro-1H-purin-9-yl)-2,4,7,11,13-pentaoxa-3λ^5,12λ^5-diphosphatricyclo[13.2.1.0^6,10]octadecane-3,12-dione]
140	Nc1ncnc2c1ccn2[C@@H]1O[C@@H]2COP(=O)(O)OC3C(O)[C@@H](COP(=O)(O)OC2C1O)C[C@H]3n1cnc2c(=O)[nH]cnc21 (stereo partly drawn) [Compound 122, (6R,8R,15R,17R)-8-{4-amino-7H-pyrrolo[2,3-d]pyrimidin-7-yl}-3,9,12,18-tetrahydroxy-17-(6-oxo-6,9-dihydro-1H-purin-9-yl)-2,4,7,11,13-pentaoxa-3λ^5,12λ^5-diphosphatricyclo[13.2.1.0^6,10]octadecane-3,12-dione]
1700	Nc1nc2c(ncn2[C@@H]2C[C@@H]3COP(=O)(O)OC4C(O)[C@H](n5nnc6c(N)ncnc65)O[C@@H]4COP(=O)(O)OC2C3O)c(=O)[nH]1 (stereo partly drawn) [Compound 116, (6R,8R,15R,17R)-8-{7-amino-3H-[1,2,3]triazolo[4,5-d]pyrimidin-3-yl}-17-(2-amino-6-oxo-6,9-dihydro-1H-purin-9-yl)-3,9,12,18-tetrahydroxy-2,4,7,11,13-pentaoxa-3λ^5,12λ^5-diphosphatricyclo[13.2.1.0^6,10]octadecane-3,12-dione]
170	CNc1ncnc2c1ncn2[C@@H]1O[C@@H]2COP(=O)(O)OC3C(O)[C@@H](COP(=O)(O)OC2C1O)C[C@H]3n1cnc2c(=O)[nH]c(N)nc21 (stereo partly drawn) [Compound 108, (6R,8R,15R,17R)-17-(2-amino-6-oxo-6,9-dihydro-1H-purin-9-yl)-3,9,12,18-tetrahydroxy-8-[6-(methylamino)-9H-purin-9-yl]-2,4,7,11,13-pentaoxa-3λ^5,12λ^5-diphosphatricyclo[13.2.1.0^6,10]octadecane-3,12-dione]

same assay, conditions: Digitonin assay EC50 WT STING, 293T wtSTING-FL cells, digitonin buffer 30 min, then 5 h, ISRE firefly luciferase reporter

Compound	EC50 [nM]
Nc1nc2c(ncn2[C@@H]2C[C@@H]3COP(=O)(O)OC4C(O)[C@H](n5cnc6c(N)ncnc65)O[C@@H]4COP(O)(=S)OC2C3O)c(=O)[nH]1 (stereo partly drawn) [Compound 101, 2-amino-9-[(6R,8R,15R,17R)-8-(6-amino-9H-purin-9-yl)-3,9,12,18-tetrahydroxy-12-oxo-3-sulfanylidene-2,4,7,11,13-pentaoxa-3λ^5,12λ^5-diphosphatricyclo[13.2.1.0^6,10]octadecan-17-yl]-6,9-dihydro-1H-purin-6-one]	10
